US9994509B2, “Inhibitors of viral replication, their process of preparation and their therapeutical uses” (HIVIH, priority 2013, dated 2018)

system: NL4-3 strain of HIV-1; assay: HIV-1 replication assay: cyto-protection of MT4 cells infected with NL4-3 virus, CellTiter-Glo viability readout; assay type: cell-based; settings: Human immunodeficiency virus 1, NL43, 120 h; concentration leading to 50% of cyto-protection; MT4 cells infected with NL4-3 virus; 5 days incubation; CellTiter-Glo; read-out: EC50
Protocol: The antiviral activity, particularly against HIV, of compounds according to the invention is evaluated by the protocol described below.
Preparation of Virus stock of the NL4-3 strain of HIV-1 (Adachi et al, J Virol, 1986, 59(2):284-91).
The virus was prepared as described in Lopez et al (Lopez et al, Proc Natl Acad Sci USA., 2006, 103(40):14947-52, by transfecting 2×10^6 293 T cells (CRL-1573, ATCC) with following modifications: 6 μg of NL4-3 proviral DNA molecular clone were mixed with X-tremeGENE 9 DNA transfection reagent from Roche, and used according to manufacturer's instructions. Twenty four hours later, cells were washed and fresh medium added. Forty eight hours after transfection, cell supernatants were harvested, filtered through 0.45-μm-pore-size filters, quantified for HIV-1 p24 antigen by using an Innotest HIV antigen mAb assay (Ingen) according to manufacturer's instructions, and used in infection experiments.
Serial dilutions of compounds to be tested were prepared in complete RPMI medium from 10 mM DMSO stock solutions, and distributed in a volume of 20 μl in 96 well tissue-culture treated plates (Costar 3917), in order to get 0.5% DMSO final concentration in each well, after the addition of infected cells. Control wells contained also 0.5% DMSO final concentration but no compound.
MT4 cells (from the NIH AIDS Research and Reference Reagent Program) in RPMI complete medium were counted (10×10^6 cells per well in Falcon 353047 Multiwell™ 24 well) and infected for 2 hours at 37°, at a multiplicity of infection (moi) of 0.0001-0.00001. Cells were then centrifuged for 3 min at 3000 rpm, and washed two times in 1 ml PBS to remove viruses that have not entered the cells. Infected cells were resuspended in complete RPMI at 1.25×10^6 cells/ml, and 80 μl of infected cells were distributed in each well containing compounds to be tested or control wells. The plates were then incubated at 37° C. for 5 days.
Assay used to measure the inhibition of HIV replication by the compounds (according to Gregg S. Jones et al., Antimicrobial Agents and Chemotherapy, 2009, 53 (3): 1194-1203).
After 5 days of incubation, microplates were equilibrated to room temperature for 30 min and then 50 μl of CellTiter-Glo reagent (Promega Biosciences, Inc., Madison Wis., USA) were added to each well. Cell lysis was carried out at room temperature during 10 min and luminescence was read on a Fluoroskan (Thermo Scientific).
The EC50, or effective concentration 50, is the concentration of compound leading to 50% of cyto-protection in a CellTiter-Glo® viability assay based on MT4 cells infected with NL4-3 virus (table 1).

In order of falling EC50:
1. COc1cc(C)c(C(OC2CC2)C(=O)O)c(-c2ccc3c(c2)CCCO3)c1C1CC1 (stereo not shown) [Example 56, (2-chroman-6-yl-3-cyclopropyl-4-methoxy-6-methyl-phenyl)-cyclopropoxy-acetic acid]  500 nM
2. Cc1ccc(C2CC2)c(-c2ccc3c(c2)CCCO3)c1C(OCC1CC1)C(=O)O (stereo not shown) [Example 29, (2-chroman-6-yl-3-cyclopropyl-6-methyl-phenyl)-cyclopropyl methoxy-acetic acid]  500 nM
3. CCCOC(C(=O)O)c1c(C)ccc(C2CC2)c1-c1ccc2c(c1)CCCO2 (stereo not shown) [Example 28, (2-chroman-6-yl-3-cyclopropyl-6-methyl-phenyl)-propoxy-acetic acid]  500 nM
4. Cc1ccc(C2CC2)c(-c2ccc3c(c2)CCCO3)c1C(OC1CCC1)C(=O)O (stereo not shown) [Example 33, (2-chroman-6-yl-3-cyclopropyl-6-methyl-phenyl)-cyclobutoxy-acetic acid]  450 nM
5. Cc1ccc(C2CC2)c(-c2ccc3c(c2)CCCO3)c1C(OC1CC1(F)F)C(=O)O (stereo not shown) [Example 47, (2-chroman-6-yl-3-cyclopropyl-6-methyl-phenyl)-(2,2-difluoro-cyclopropoxy)-acetic acid]  450 nM
6. Cc1ccc(C2CC2)c(-c2ccc3c(c2)CCCO3)c1C(OCC(F)F)C(=O)O (stereo not shown) [Example 34, (2-chroman-6-yl-3-cyclopropyl-6-methyl-phenyl)-(2,2-difluoro-ethoxy)-acetic acid]  440 nM
7. CCOC(C(=O)O)c1c(C)ccc(C2CC2)c1-c1ccc2c(c1)CCCO2 (stereo not shown) [Example 19, 2-(2-chroman-6-yl-3-cyclopropyl-6-methyl-phenyl)-2-ethoxy-acetic acid]  400 nM
8. Cc1ccc([C@@H]2C[C@@H]2C)c(-c2ccc3c(c2)CCCO3)c1C(OC(C)(C)C)C(=O)O (relative stereo) [Example 26, tert-Butoxy-[2-chroman-6-yl-6-methyl-3-(cis-2-methyl-cyclopropyl)-phenyl]-acetic acid]  300 nM
9. Cc1ccc(C2CC2)c(-c2ccc3c(c2)CCCO3)c1C(CC1CC1)C(=O)O (stereo not shown) [Example 45, 3-cyclopropyl-2-[3-cyclopropyl-2-(3,4-dihydro-2H-1-benzopyran-6-yl)-6-methylphenyl]propanoic acid]  290 nM
10. O=C(O)C(OC1CC1)c1c(C(F)(F)F)ccc(C2CC2)c1-c1ccc2c(c1)CCCO2 (stereo not shown) [Example 27, (2-chroman-6-yl-3-cyclopropyl-6-trifluoromethyl-phenyl)-cyclopropoxy-acetic acid]  280 nM
11. CC(C)(C)OC(C(=O)O)c1c(C(F)(F)F)ccc(C2CCCC2)c1-c1ccc2c(c1)CCCO2 (stereo not shown) [Example 6, 2-(tert-butoxy)-2-[3-(cyclopentyl)-2-(3,4-dihydro-2H-1-benzopyran-6-yl)-6-(trifluoromethyl)phenyl]acetic acid]  270 nM
12. Cc1ccc(C2(C)CC2)c(-c2ccc3c(c2)CCCO3)c1C(OC(C)(C)C)C(=O)O (stereo not shown) [Example 25, tert-butoxy-[2-chroman-6-yl-6-methyl-3-(1-methyl-cyclopropyl)-phenyl]-acetic acid]  200 nM
13. C=C(C)c1ccc(C(F)(F)F)c(C(OC(C)(C)C)C(=O)O)c1-c1ccc2c(c1)CCCO2 (stereo not shown) [Example 8, 2-(tert-butoxy)-2-[2-(3,4-dihydro-2H-1-benzopyran-6-yl)-3-(prop-1-en-2-yl)-6-(trifluoromethyl)phenyl]acetic acid]  190 nM
14. CC(C)(C)OC(C(=O)O)c1c(-c2ccc3c(c2)CCCO3)c(C2CC2)cc2ncccc12 (stereo not shown) [Example 42, tert-butoxy-(6-chroman-6-yl-7-cyclopropyl-quinolin-5-yl)-acetic acid]  190 nM
15. Cc1ccc(C2CC2)c(-c2ccc3c(c2)CCCO3)c1C(OC1CC1)C(=O)O (stereo not shown) [Example 23, 2-[3-cyclopropyl-2-(3,4-dihydro-2H-1-benzopyran-6-yl)-6-methylphenyl]-2-cyclopropoxyacetic acid]  100 nM
16. Cc1ccc(C2CC2)c(-c2ccc3c(c2)CCCO3)c1C(OC(C)C)C(=O)O (stereo not shown) [Example 36, (2-chroman-6-yl-3-cyclopropyl-6-methyl-phenyl)-isopropoxy-acetic acid]  100 nM
17. Cc1ccc(C2CCC2)c(-c2ccc3c(c2)CCCO3)c1C(OC(C)(C)C)C(=O)O (stereo not shown) [Example 43, tert-butoxy-(2-chroman-6-yl-3-cyclobutyl-6-methyl-phenyl)-acetic acid]  94 nM
18. CC(C)(C)OC(C(=O)O)c1c(C(F)(F)F)ccc(C2CC2)c1-c1ccc2c(c1)CCCO2 (stereo not shown) [Example 2, 2-(tert-butoxy)-2-[3-cyclopropyl-2-(3,4-dihydro-2H-1-benzopyran-6-yl)-6-(trifluoromethyl)phenyl]acetic acid]  90 nM
19. COc1ccc(-c2c(C3CC3)ccc(C)c2C(OC(C)(C)C)C(=O)O)cc1 (stereo not shown) [Example 12, 2-(tert-butoxy)-2-(6-cyclopropyl-4′-methoxy-3-methyl-biphenyl-2-yl]acetic acid]  78 nM
20. COc1c(-c2nc3ccccc3[nH]2)cc(C(F)(F)F)c(C(OC(C)(C)C)C(=O)O)c1-c1ccc2c(c1)CCCO2 (stereo not shown) [Example 7, 2-[4-(1H-1,3-benzodiazol-2-yl)-2-(3,4-dihydro-2H-1-benzopyran-6-yl)-3-methoxy-6-(trifluoromethyl)phenyl]-2-(tert-butoxy)acetic acid]  62 nM
21. Cc1ccc(C2CC2)c(-c2ccc3c(c2)CCCO3)c1[C@H](OC1CC1)C(=O)O [Example 24, (S)-2-[3-cyclopropyl-2-(3,4-dihydro-2H-1-benzopyran-6-yl)-6-methylphenyl]-2-cyclopropoxyacetic acid]  42 nM
22. C=C(C)c1ccc(C)c(C(OC(C)(C)C)C(=O)O)c1-c1ccc2c(c1)CCCO2 (stereo not shown) [Example 4, 2-(tert-butoxy)-2-[2-(3,4-dihydro-2H-1-benzopyran-6-yl)-3-isopropenyl-6-methylphenyl]acetic acid]  34 nM
23. Cc1ccc(C2CC2)c(-c2cc(F)c3c(c2C)CCCO3)c1C(OC1CC1)C(=O)O (stereo not shown) [Example 37, cyclopropoxy-[3-cyclopropyl-2-(8-fluoro-5-methyl-chroman-6-yl)-6-methyl-phenyl]-acetic acid]  24 nM
24. Cc1ccc(C2CC2)c(-c2ccc3c(c2)CCCO3)c1C(OC1(C)CC1)C(=O)O (stereo not shown) [Example 39, (2-chroman-6-yl-3-cyclopropyl-6-methyl-phenyl)-(1-methyl-cyclopropoxy)-acetic acid]  24 nM
25. Cc1ccc(C(C)C)c(-c2ccc3c(c2)CCCO3)c1C(OC(C)(C)C)C(=O)O (stereo not shown) [Example 5, 2-(tert-butoxy)-2-[2-(3,4-dihydro-2H-1-benzopyran-6-yl)-3-isopropyl-6-methylphenyl]acetic acid]  23 nM
26. Cc1ccc(C2CC2)c(-c2cc(F)c3c(c2C)CCCO3)c1[C@H](OC1CC1)C(=O)O (atropisomer, axis not shown) [Example 44, (S)-cyclopropoxy-[3-cyclopropyl-2-(8-fluoro-5-methyl-chroman-6-yl)-6-methyl-phenyl]-acetic acid]  17 nM
27. Cc1ccc(C2CC2)c(-c2cc(F)c3c(c2C)CCCO3)c1C(OC(C)(C)C)C(=O)O (stereo not shown) [Example 21, tert-butoxy-[3-cyclopropyl-2-(8-fluoro-5-methyl-chroman-6-yl)-6-methyl-phenyl]-acetic acid]  14 nM
28. Cc1ccc(C2CC2)c(-c2ccc3c(c2C)CCCO3)c1[C@H](OC1CC1)C(=O)O (atropisomer, axis not shown) [Example 40, (S)-cyclopropoxy-[3-cyclopropyl-6-methyl-2-(5-methyl-chroman-6-yl)-phenyl]-acetic acid]  14 nM
29. Cc1ccc(C2CC2)c(-c2ccc3c(c2)CCCO3)c1[C@H](OC(C)(C)C)C(=O)O [Example 13, (S)-2-(tert-butoxy)-2-[3-cyclopropyl-2-(3,4-dihydro-2H-1-benzopyran-6-yl)-6-methylphenyl]acetic acid]  8 nM
30. Cc1ccc(C2CC2)c(-c2cc(F)c3c(c2C)CCCO3)c1[C@H](OC(C)(C)C)C(=O)O (atropisomer, axis not shown) [Example 41, (S)-tert-butoxy-[3-cyclopropyl-2-(8-fluoro-5-methyl-chroman-6-yl)-6-methyl-phenyl]-acetic acid]  6 nM

same assay, conditions: Human immunodeficiency virus 1, NL43, MT4, 120 h

For `Cc1ccc(CC2CC2)c(-c2ccc3c(c2)CCCO3)c1C(OC(C)(C)C)C(=O)O` (stereo not shown) [Example 22, tert-Butoxy-(2-chroman-6-yl-3-cyclopropylmethyl-6-methyl-phenyl)-acetic acid], the EC50 was 91 nM.
